Measurements as given in patent US8153693B2, “Compounds for the selective treatment of the intestinal immuno-inflammatory component of the celiac disease” (Giuliani International Limited, priority 2007, dated 2012).
“Also recorded” adds a separate entry of the source.

Tests used:
[1] = tested on: HT-29 STD cells; experiment: Cytotoxic effect on epithelial cells seen in the HT-29 experiments; format: cell-based; conditions: 30 mM
Description: After 24 h of culture, HT-29 STD cells were treated during 24 h with the compounds A, B, C, D and F, at 30 mM. […] The pH of the drug solutions was adjusted to 7.4 with NaOH. Cells were fixed in PFA 4%, permeabilized in PBS containing 0.1% Triton X-100™ at 4° C. and then incubated with goat normal serum and blocking buffer (1% BSA in PBS) to minimize non-specific adsorption of the antibody.
(§1) After 24 h of culture, HT-29 STD cells were treated during 24 h with the compounds A, B, C, D, F, at a concentration of 30 mM. […] The pH of the drug solutions was adjusted to 7.4 with NaOH. Cells undergoing apoptosis were identified by enzymatic labelling of DNA strands using a terminal transferase dUTP nick end labelling assay (TUNEL assay, Roche Diagnostics™, Meylan, France). Counts of at least 500 cells/sample were systematically performed blindly in one experiment. The results were expressed as the mean±SEM of the number of stained cells.

[2] = target: T1, PPARγ (Homo sapiens, UniProt P37231); experiment: PPARγ activation, PPRE luciferase reporter in transfected HT-29 STD cells (Example 5); format: cell-based; conditions: 30 mM; for increase of the reporter gene activity: 24 hours, versus non-stimulated cells
T1 construct: HT-29 STD cells were transiently transfected using the Effectene™ transfection reagent; endogenous in cells; host or cells: HT-29 STD (ATCC HTB-38)
T1 sequence (P37231 1-505): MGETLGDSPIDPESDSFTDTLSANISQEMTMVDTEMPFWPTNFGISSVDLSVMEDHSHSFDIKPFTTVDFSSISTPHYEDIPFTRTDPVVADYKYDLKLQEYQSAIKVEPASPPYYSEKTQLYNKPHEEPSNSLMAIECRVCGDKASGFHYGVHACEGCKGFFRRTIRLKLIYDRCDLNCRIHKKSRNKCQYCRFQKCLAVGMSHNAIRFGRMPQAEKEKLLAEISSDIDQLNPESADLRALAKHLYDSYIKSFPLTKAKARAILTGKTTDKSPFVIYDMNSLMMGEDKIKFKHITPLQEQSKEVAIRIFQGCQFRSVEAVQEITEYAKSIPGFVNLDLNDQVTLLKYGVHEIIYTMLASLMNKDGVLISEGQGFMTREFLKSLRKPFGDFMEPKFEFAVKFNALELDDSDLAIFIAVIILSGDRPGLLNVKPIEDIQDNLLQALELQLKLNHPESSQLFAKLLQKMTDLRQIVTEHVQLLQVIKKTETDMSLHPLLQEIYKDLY
Description: (§2) The colon cell line HT-29 STD (ATCC HTB-38) was routinely grown in DMEM supplemented with 10% heat-FCS, and antibiotics. Cells were grown in monolayers, incubated at 37° C. in 5% CO2 and 95% relative humidity.
HT-29 STD cells were transiently transfected using the Effectene™ transfection reagent (Qiagen™) according to instructions from the manufacturer. To test PPARγ activation, we performed transfection with 500 ng of a minimal promoter construct containing two copies of PPRE obtained from the cytochrome p450 4A (2×CYP). The renilla luciferase plasmid (0.1 μg/well) was also transfected as an internal control for monitoring transfection efficiency and for normalizing the firefly luciferase activity. Transfected cells were left for 48 hours incubation at 37° C. […] The pH of the drug solutions was adjusted to 7.4 with NaOH. Total cell extracts were prepared using the Passive Lysis Buffer (Promega™, Madison, Wis.). Luciferase activity was assayed in 20 μl of the extract using the Promega™ Dual Luciferase assay system according to the manufacturer's protocol. Transfections were assayed in triplicate in at least three separate experiments. The luciferase activity was expressed as fold of the activity obtained in cells treated with the different molecules divided by luciferase activity from non-stimulated cells.
We investigated PPARγ transcriptional activity by transient transfections of epithelial cells with the renilla luciferase PPRE plasmids. Cells were stimulated with the different molecules during 24 hours.

[3] = tested on: PPARγ; experiment: PPARγ expression by western blot in HT-29 cells; format: cell-based; conditions: for induction of PPARγ expression at the protein levels (in words): HT-29 cell line; for mean induction of PPARγ protein levels quantified by western blot: cells treated during 24 hours
Description: as §2
The total proteins were obtained by cell homogenization in an extraction buffer consisting of PBS with 2% Triton™, Phenyl Methyl Sulphonyl Fluoride (PMSF) 100 mM and a classical protease inhibitor cocktail. The total proteins were then separated by polyacrylamide gel electrophoresis and electroblotted. Polyvinylidendifluoride (PVDF) membranes were incubated overnight with rabbit polyclonal primary antibody directed against PPARγ (dilution 1/500, TEBU, Le Perray en Yveline, France). β-actin was detected using a rabbit monoclonal primary antibody diluted at 1/10,000 (Sigma). Immunodetection with a secondary peroxidase-conjugated antibody (1/1000, Dako™, Trappes, France) and chemiluminescence was performed according to the manufacturer's protocol (ECL™, Amersham Pharmacia Biotech™, Orsay, France). Optical density values of PPARγ were given for each condition in proportion to the quantity of the internal control β-actin in the same sample.

[4] = Solubility of the molecules in the cell experiments; format: physicochemical; conditions: reason for exclusion from the cell experiments
[5] = tested on: HT-29 STD cells; experiment: Detection of apoptosis, TUNEL assay; format: cell-based; conditions: 30 mM, 24 h
Description: as §1

## COc1ccc(N)cc1C(=O)NO [A]
[1]
  cytotoxic effect on epithelial cells: rapid cytotoxic effects; also recorded: direct cytotoxic effects

## COc1cc(N)ccc1C(=O)NO [B]
[1]
  cytotoxic effect on epithelial cells: rapid cytotoxic effects; also recorded: direct cytotoxic effects

## Nc1cc2c(c(C(=O)O)c1)OCC2 [C]
[2]
  PPARγ activation (in words): induce PPARγ activation
  increase of the reporter gene activity: two-fold
[3]
  induction of PPARγ expression at the protein levels (in words): induce PPARγ expression
  mean induction of PPARγ protein levels quantified by western blot: 2 fold

## CCOc1ccc(N)cc1C(=O)NO [Compound D]
[3]
  induction of PPARγ expression at the protein levels (in words): induce PPARγ expression
  mean induction of PPARγ protein levels quantified by western blot: 2 fold
[1]
  cytotoxic effect on epithelial cells: rapid cytotoxic effect; also recorded: direct cytotoxic effects

## CC1(C)OC(=O)c2cc(N)ccc2O1 [E]
[4]
  solubility: poor solubility

## CC(C)Oc1ccc(N)cc1C(=O)O [F]
[5]
  apoptosis, share of epithelial cells (TUNEL): 80%
[2]
  PPARγ activation (in words): induce PPARγ activation
  increase of the reporter gene activity: two-fold
[3]
  induction of PPARγ expression at the protein levels (in words): induce PPARγ expression
  mean induction of PPARγ protein levels quantified by western blot: 2 fold

## CC(C)N(c1ccc(O)c(C(=O)O)c1)C(C)C [G]
[4]
  solubility: poor solubility
[1]
  cytotoxic effect on epithelial cells: rapid cytotoxic effect; also recorded: direct cytotoxic effects
